From the supplement of paper PMC10307832

Legend:
Test in all cases: relative viability (nuclei count vs DMSO), 5 days (fraction); higher = more cells survive
[1] = compound: O=C(NCCCNc1nc(Nc2cccc(NC(=O)N3CCCC3)c2)ncc1I)c1cccs1 [BX 795] + Nc1nc2[nH]cc(CCc3ccc(C(=O)N[C@@H](CCC(=O)O)C(=O)O)cc3)c2c(=O)[nH]1 [Pemetrexed] (partner 0.2 µM)
How it was run: (§1)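 Each reported value is a median over duplicate plates. It expresses relative viability: treated-well nuclei count divided by vehicle-well nuclei count. Lung cancer cell lines in 1536-well plates were dosed by pin tool a day after seeding, alone with one drug or with a fixed anchor-drug dose plus five library-drug doses (not always all listed) in √10 steps, and nuclei were counted after 5 days.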

[2] = compound: O=C(NCCCNc1nc(Nc2cccc(NC(=O)N3CCCC3)c2)ncc1I)c1cccs1 [BX 795] + Nc1ncn([C@H]2C[C@H](O)[C@@H](CO)O2)c(=O)n1 [Decitabine] (partner 2 µM)
How it was run: as §1

[3] = compound: O=C(NCCCNc1nc(Nc2cccc(NC(=O)N3CCCC3)c2)ncc1I)c1cccs1 [BX 795] + NC(=O)Nc1cc(-c2cccc(F)c2)sc1C(=O)N[C@H]1CCCNC1 [AZD7762] (partner 0.2 µM)
How it was run: as §1

[4] = compound: O=C(NCCCNc1nc(Nc2cccc(NC(=O)N3CCCC3)c2)ncc1I)c1cccs1 [BX 795] + CS(=O)(=O)N1CCN(Cc2cc3nc(-c4cccc5[nH]ncc45)nc(N4CCOCC4)c3s2)CC1 [Pictilisib] (partner 1 µM)
How it was run: as §1

[5] = compound: O=C(NCCCNc1nc(Nc2cccc(NC(=O)N3CCCC3)c2)ncc1I)c1cccs1 [BX 795] + CC(=O)Nc1cccc(-n2c(=O)n(C3CC3)c(=O)c3c(Nc4ccc(I)cc4F)n(C)c(=O)c(C)c32)c1 [Trametinib] (partner 0.02 µM)
How it was run: as §1

NCI-H2347
relative viability ([1]; first compound 0.04 µM): 0.424
relative viability ([1]; first compound 0.1265 µM): 0.375
relative viability ([1]; first compound 0.4 µM): 0.434
relative viability ([1]; first compound 1.265 µM): 0.434
relative viability ([2]; first compound 0.04 µM): 0.65
relative viability ([2]; first compound 0.1265 µM): 0.653
relative viability ([2]; first compound 0.4 µM): 0.69
relative viability ([2]; first compound 1.265 µM): 0.636
relative viability ([3]; first compound 0.04 µM): 0.806
relative viability ([3]; first compound 0.1265 µM): 0.838
relative viability ([3]; first compound 0.4 µM): 0.677
relative viability ([3]; first compound 1.265 µM): 0.578
relative viability ([4]; first compound 0.04 µM): 0.818
relative viability ([4]; first compound 0.1265 µM): 0.492
relative viability ([4]; first compound 0.4 µM): 0.851
relative viability ([4]; first compound 1.265 µM): 0.722
relative viability ([5]; first compound 0.04 µM): 0.282
relative viability ([5]; first compound 0.1265 µM): 0.239
relative viability ([5]; first compound 0.4 µM): 0.29
relative viability ([5]; first compound 1.265 µM): 0.275

LU99A
relative viability ([1]; first compound 0.04 µM): 0.148
relative viability ([1]; first compound 0.1265 µM): 0.197
relative viability ([1]; first compound 0.4 µM): 0.128
relative viability ([1]; first compound 1.265 µM): 0.209
relative viability ([2]; first compound 0.04 µM): 0.967
relative viability ([2]; first compound 0.1265 µM): 0.81
relative viability ([2]; first compound 0.4 µM): 0.921
relative viability ([2]; first compound 1.265 µM): 0.428
relative viability ([3]; first compound 0.04 µM): 0.344
relative viability ([3]; first compound 0.1265 µM): 0.355
relative viability ([3]; first compound 0.4 µM): 0.347
relative viability ([3]; first compound 1.265 µM): 0.24
relative viability ([4]; first compound 0.04 µM): 0.384
relative viability ([4]; first compound 0.1265 µM): 0.317
relative viability ([4]; first compound 0.4 µM): 0.329
relative viability ([4]; first compound 1.265 µM): 0.252
relative viability ([5]; first compound 0.04 µM): 0.558
relative viability ([5]; first compound 0.1265 µM): 0.484
relative viability ([5]; first compound 0.4 µM): 0.41
relative viability ([5]; first compound 1.265 µM): 0.278

HCC-78
relative viability ([1]; first compound 0.04 µM): 0.913
relative viability ([1]; first compound 0.1265 µM): 0.888
relative viability ([1]; first compound 0.4 µM): 0.873
relative viability ([1]; first compound 1.265 µM): 0.883
relative viability ([2]; first compound 0.04 µM): 0.913
relative viability ([2]; first compound 0.1265 µM): 0.664
relative viability ([2]; first compound 0.4 µM): 0.825
relative viability ([2]; first compound 1.265 µM): 0.653
relative viability ([3]; first compound 0.04 µM): 0.583
relative viability ([3]; first compound 0.1265 µM): 0.631
relative viability ([3]; first compound 0.4 µM): 0.606
relative viability ([3]; first compound 1.265 µM): 0.594
relative viability ([4]; first compound 0.04 µM): 0.236
relative viability ([4]; first compound 0.1265 µM): 0.206
relative viability ([4]; first compound 0.4 µM): 0.154
relative viability ([4]; first compound 1.265 µM): 0.218
relative viability ([5]; first compound 0.04 µM): 0.823
relative viability ([5]; first compound 0.1265 µM): 0.756
relative viability ([5]; first compound 0.4 µM): 0.797
relative viability ([5]; first compound 1.265 µM): 0.737

PC-3 [JPC-3]
relative viability ([1]; first compound 0.04 µM): 1.04
relative viability ([1]; first compound 0.4 µM): 1.16
relative viability ([1]; first compound 1.265 µM): 1.02
relative viability ([2]; first compound 0.04 µM): 0.834
relative viability ([2]; first compound 0.4 µM): 0.907
relative viability ([2]; first compound 1.265 µM): 0.725
relative viability ([3]; first compound 0.04 µM): 0.809
relative viability ([3]; first compound 0.4 µM): 0.685
relative viability ([3]; first compound 1.265 µM): 0.802
relative viability ([4]; first compound 0.04 µM): 0.753
relative viability ([4]; first compound 0.1265 µM): 0.707
relative viability ([4]; first compound 0.4 µM): 0.685
relative viability ([4]; first compound 1.265 µM): 0.827
relative viability ([5]; first compound 0.04 µM): 0.723
relative viability ([5]; first compound 0.4 µM): 0.631
relative viability ([5]; first compound 1.265 µM): 0.729

NCI-H1437
relative viability ([1]; first compound 0.04 µM): 0.277
relative viability ([1]; first compound 0.1265 µM): 0.305
relative viability ([1]; first compound 0.4 µM): 0.257
relative viability ([1]; first compound 1.265 µM): 0.321
relative viability ([2]; first compound 0.04 µM): 0.616
relative viability ([2]; first compound 0.1265 µM): 0.586
relative viability ([2]; first compound 0.4 µM): 0.846
relative viability ([2]; first compound 1.265 µM): 0.618
relative viability ([3]; first compound 0.04 µM): 1.14
relative viability ([3]; first compound 0.1265 µM): 1.14
relative viability ([3]; first compound 0.4 µM): 0.888
relative viability ([3]; first compound 1.265 µM): 1.18
relative viability ([4]; first compound 0.04 µM): 0.488
relative viability ([4]; first compound 0.1265 µM): 0.411
relative viability ([4]; first compound 0.4 µM): 0.417
relative viability ([4]; first compound 1.265 µM): 0.55
relative viability ([5]; first compound 0.04 µM): 0.496
relative viability ([5]; first compound 0.1265 µM): 0.605
relative viability ([5]; first compound 0.4 µM): 0.516
relative viability ([5]; first compound 1.265 µM): 0.538

NCI-H1755
relative viability ([1]; first compound 0.04 µM): 0.42
relative viability ([1]; first compound 0.1265 µM): 0.44
relative viability ([1]; first compound 0.4 µM): 0.381
relative viability ([1]; first compound 1.265 µM): 0.447
relative viability ([2]; first compound 0.04 µM): 0.796
relative viability ([2]; first compound 0.1265 µM): 0.645
relative viability ([2]; first compound 0.4 µM): 0.885
relative viability ([2]; first compound 1.265 µM): 0.704
relative viability ([3]; first compound 0.04 µM): 0.465
relative viability ([3]; first compound 0.1265 µM): 0.467
relative viability ([3]; first compound 0.4 µM): 0.374
relative viability ([3]; first compound 1.265 µM): 0.386
relative viability ([4]; first compound 0.04 µM): 0.442
relative viability ([4]; first compound 0.1265 µM): 0.418
relative viability ([4]; first compound 0.4 µM): 0.35
relative viability ([4]; first compound 1.265 µM): 0.305
relative viability ([5]; first compound 0.04 µM): 0.849
relative viability ([5]; first compound 0.1265 µM): 0.763
relative viability ([5]; first compound 0.4 µM): 0.793
relative viability ([5]; first compound 1.265 µM): 0.665

NCI-H596
relative viability ([1]; first compound 0.04 µM): 0.464
relative viability ([1]; first compound 0.1265 µM): 0.476
relative viability ([1]; first compound 0.4 µM): 0.456
relative viability ([1]; first compound 1.265 µM): 0.527
relative viability ([2]; first compound 0.04 µM): 1.05
relative viability ([2]; first compound 0.1265 µM): 0.982
relative viability ([2]; first compound 0.4 µM): 1.1
relative viability ([2]; first compound 1.265 µM): 1.08
relative viability ([3]; first compound 0.04 µM): 1.11
relative viability ([3]; first compound 0.1265 µM): 0.956
relative viability ([3]; first compound 0.4 µM): 1.14
relative viability ([3]; first compound 1.265 µM): 1.03
relative viability ([4]; first compound 0.04 µM): 0.449
relative viability ([4]; first compound 0.1265 µM): 0.38
relative viability ([4]; first compound 0.4 µM): 0.417
relative viability ([4]; first compound 1.265 µM): 0.431
relative viability ([5]; first compound 0.04 µM): 0.807
relative viability ([5]; first compound 0.1265 µM): 0.757
relative viability ([5]; first compound 0.4 µM): 0.932
relative viability ([5]; first compound 1.265 µM): 0.776

EPLC-272H
relative viability ([1]; first compound 0.04 µM): 0.272
relative viability ([1]; first compound 0.1265 µM): 0.294
relative viability ([1]; first compound 0.4 µM): 0.123
relative viability ([1]; first compound 1.265 µM): 0.21
relative viability ([2]; first compound 0.04 µM): 0.356
relative viability ([2]; first compound 0.1265 µM): 0.472
relative viability ([2]; first compound 0.4 µM): 0.374
relative viability ([2]; first compound 1.265 µM): 0.305
relative viability ([3]; first compound 0.04 µM): 0.215
relative viability ([3]; first compound 0.1265 µM): 0.337
relative viability ([3]; first compound 0.4 µM): 0.234
relative viability ([3]; first compound 1.265 µM): 0.259
relative viability ([4]; first compound 0.04 µM): 0.364
relative viability ([4]; first compound 0.4 µM): 0.308
relative viability ([4]; first compound 1.265 µM): 0.304
relative viability ([5]; first compound 0.04 µM): 0.293
relative viability ([5]; first compound 0.1265 µM): 0.32
relative viability ([5]; first compound 0.4 µM): 0.275
relative viability ([5]; first compound 1.265 µM): 0.325

NCI-H1792
relative viability ([1]; first compound 0.04 µM): 0.918
relative viability ([1]; first compound 0.4 µM): 0.882
relative viability ([1]; first compound 1.265 µM): 0.533
relative viability ([2]; first compound 0.04 µM): 0.546
relative viability ([2]; first compound 0.4 µM): 0.588
relative viability ([2]; first compound 1.265 µM): 0.408
relative viability ([3]; first compound 0.04 µM): 0.616
relative viability ([3]; first compound 0.4 µM): 0.696
relative viability ([3]; first compound 1.265 µM): 0.576
relative viability ([4]; first compound 0.04 µM): 0.286
relative viability ([4]; first compound 0.1265 µM): 0.269
relative viability ([4]; first compound 0.4 µM): 0.24
relative viability ([4]; first compound 1.265 µM): 0.191
relative viability ([5]; first compound 0.04 µM): 0.425
relative viability ([5]; first compound 0.4 µM): 0.525
relative viability ([5]; first compound 1.265 µM): 0.509

NCI-H2405
relative viability ([1]; first compound 0.04 µM): 1.06
relative viability ([1]; first compound 0.1265 µM): 1.02
relative viability ([1]; first compound 0.4 µM): 0.996
relative viability ([1]; first compound 1.265 µM): 1.05
relative viability ([2]; first compound 0.04 µM): 0.869
relative viability ([2]; first compound 0.1265 µM): 0.742
relative viability ([2]; first compound 0.4 µM): 0.693
relative viability ([2]; first compound 1.265 µM): 0.722
relative viability ([3]; first compound 0.04 µM): 0.714
relative viability ([3]; first compound 0.1265 µM): 0.678
relative viability ([3]; first compound 0.4 µM): 0.664
relative viability ([3]; first compound 1.265 µM): 0.573
relative viability ([4]; first compound 0.04 µM): 0.373
relative viability ([4]; first compound 0.1265 µM): 0.364
relative viability ([4]; first compound 0.4 µM): 0.295
relative viability ([4]; first compound 1.265 µM): 0.319
relative viability ([5]; first compound 0.04 µM): 0.557
relative viability ([5]; first compound 0.1265 µM): 0.556
relative viability ([5]; first compound 0.4 µM): 0.44
relative viability ([5]; first compound 1.265 µM): 0.534
